The results in this text go back to patent US4596873A, “1,4,5,6,7,8-Hexahydro-2-alkyl-4-aryl-5-oxo-1,7-naphthyridine-3-carboxyl ic acid aromatic esters and pharmaceutically acceptable acid addition salts thereof useful as antihypertensive agents” (American Home Products Corporation, priority 1985, dated 1986).

The subject of assay [1] is arterial actin-myosin interactions. The assay can be described thus: inhibition of superprecipitation (antagonism of arterial actin-myosin interaction). Particulars: six minute time-point, mean±SEM. Format: biochemical. How it is done:
(§1) The data reported herein was obtained at a six minute time-point rather than the 1.5, 5 and 12 minute time points indicated in the superprecipitation assay of the Silver et al. paper.
(§2) The following examples illustrate the preparation of a representative number of compounds of this invention. After each example, and Ca^+2 antagonist activity of the compound is presented in terms of percent relaxation of aortic tissue (P.R.) at 10^-5 M concentration. […] Inhibition of superprecipitation (Antag. of Actin-Myosin interaction) is expressed as percent inhibition (mean±standard error of the mean for at least 3 separate experiments) at a compound concentration. In the same manner, inhibition of myosin light chain phosphorylation (Antag. of MLCP) is expressed as a percent inhibition at a compound concentration. Similarly, the antihypertensive activity is reported in terms of millimeters mercury (mmHg) systolic blood pressure (B.P.) reduction at the stated time post 50 mg/kg oral dosing or other dosing as indicated.

For assay [2], the system named is spontaneously hypertensive rats. Put plainly: decrease in systolic blood pressure of spontaneously hypertensive rats. The format is in vivo, rat.
Assay [3] concerns Ca^+2 -calmodulin dependent myosin light chain phosphorylation. The assay can be described thus: inhibition of Ca^+2-calmodulin dependent myosin light chain phosphorylation (MLCP). Format: biochemical. How it is done:
as §1, §2

On to `CC1=C(C(=O)OCCOc2ccccc2)C(c2c(F)c(F)c(F)c(F)c2F)C2=C(CNCC2=O)N1` (racemic) [Example 2, 1,4,5,6,7,8-Hexahydro-2-methyl-5-oxo-4-(pentafluorophenyl)-1,7-naphthyridine-3-carboxylic acid 2-phenoxyethyl ester], for which the figures for the “inhibition of superprecipitation (Antag. of Actin-Myosin)” value (from here on “inhibition of superprecipitation”) in assay [1] (25 μM), in assay [1] (50 μM) and in assay [1] (100 μM) were 28±2%, 58±4% and 72±2%, respectively. Also, the “systolic blood pressure (B.P.) reduction” value in assay [2] (10 mg/kg, 4 hours) is recorded as -51 mmHg. Also, the “inhibition of myosin light chain phosphorylation (Antag. of MLCP)” value (shortened to “inhibition … (Antag. of MLCP)”) in assay [3] (25 μM) is reported as 24±3%; in assay [3] (50 μM), 54±4%; in assay [3] (100 μM), 69±3%.

In the case of `CO[C@H](COC(=O)C1=C(C)NC2=C(C(=O)CNC2)C1c1c(F)c(F)c(F)c(F)c1F)c1ccccc1` (single isomer, unassigned) [Example 8 Diastereomer A, 1,4,5,6,7,8-Hexahydro-2-methyl-5-oxo-4(R or S-pentafluorophenyl)-1,7-naphthyridine-3-carboxylic acid (S)-2-methoxy-2-phenylethyl esters], the entries for the “inhibition of superprecipitation” value in assay [1] (50 μM) and in assay [1] (100 μM) were 28% and 69%, respectively. The entries for the “inhibition … (Antag. of MLCP)” value in assay [3] (50 μM) and in assay [3] (100 μM) were 28% and 63%, respectively.

With `CO[C@H](COC(=O)C1=C(C)NC2=C(C(=O)CNC2)C1c1c(F)c(F)c(F)c(F)c1F)c1ccccc1` (single isomer, unassigned) [Example 8 Diastereomer B, 1,4,5,6,7,8-Hexahydro-2-methyl-5-oxo-4(R or S-pentafluorophenyl)-1,7-naphthyridine-3-carboxylic acid (S)-2-methoxy-2-phenylethyl esters], the “inhibition of superprecipitation” value in assay [1] (50 μM) came out at 30%; in assay [1] (100 μM), 64%. Further, the results for the “inhibition … (Antag. of MLCP)” value in assay [3] (50 μM) and in assay [3] (100 μM) were 34% and 62%, respectively.

Turning to `CC1=C(C(=O)OCCOc2ccccc2)C(c2c(F)c(F)c(F)c(F)c2F)C2=C(CNCC2=O)N1` (single isomer, unassigned; (-)) [Example 3, (-)-1,4,5,6,7,8-Hexahydro-2-methyl-5-oxo-4-(pentafluorophenyl)-1,7-naphthyridine-3-carboxylic acid 2-phenoxyethyl ester], the “inhibition of superprecipitation” value in assay [1] (50 μM) came to 65%; in assay [1] (100 μM) it was 76%. In addition, the “inhibition … (Antag. of MLCP)” value in assay [3] (50 μM) turned out to be 57%; in assay [3] (100 μM), 70%.

As for `COC(COC(=O)C1=C(C)NC2=C(C(=O)CNC2)C1c1cccc(Cl)c1Cl)c1ccccc1` (stereo not drawn) [Example 1, 4-(2,3-Dichlorophenyl)-1,4,5,6,7,8-hexahydro-2-methyl-5-oxo-1,7-naphthyridine-3-carboxylic acid 2-methoxy-2-phenylethyl ester], the “inhibition of superprecipitation” value worked out at 43±2% in assay [1] (25 μM), 75±3% in assay [1] (50 μM) and 83±3% in assay [1] (100 μM). Moreover, the “systolic blood pressure (B.P.) reduction” value in assay [2] (50 mg/kg oral, 1.5 hours) is given as -53 mmHg; in assay [2] (50 mg/kg oral, 4 hours), -30 mmHg. In addition, the figures for the “inhibition … (Antag. of MLCP)” value in assay [3] (25 μM), in assay [3] (50 μM) and in assay [3] (100 μM) were 38±3%, 66% and 76±2%, respectively.
